Drawing on ChEMBL document CHEMBL1121377, “Synthesis and biological activities of chloroethylurea, methylurea, and nitrosourea analogues of N-deacetylmethylthiocolchicine” (1980), this text covers inhibition and EC50 for 6 compounds.

Common to all, as to assay type: functional
The test system of experiment [1] is Human alphaherpesvirus 1. Put plainly: Percent inhibition of herpes simplex type-1 virus at the concentration of 1 uM.
The next experiment deals with L1210. As to the kind of experiment: In vitro inhibitory activity against murine leukemia L1210 cells. Conditions: Mus musculus, read-out: ED50 (the source's name).
A short description of experiment [2]: In vitro inhibitory activity against Sarcoma 180 cells. Conditions: Mus musculus, read-out: ED50 (the source's name).
Experiment [3] relates to Human alphaherpesvirus 1. Put plainly: Percent inhibition of herpes simplex type-1 virus at the concentration of 175 uM.
Experiment [4] deals with Human alphaherpesvirus 1. Put plainly: Percent inhibition of herpes simplex type-1 virus at the concentration of 10 uM.
For experiment [5], the system named is Human alphaherpesvirus 1. Put plainly: Percent inhibition of herpes simplex type-1 virus at the concentration of 20 uM.
For experiment [6], the system named is Human alphaherpesvirus 1. Put plainly: Percent inhibition of herpes simplex type-1 virus at the concentration of 50 uM.

Broadly, the inhibition is the percentage by which the read-out fell short of the control. Read a high inhibition as a strong effect. For the compound `COc1cc2c(c(OC)c1OC)-c1ccc(SC)c(=O)cc1C(NC(=O)N(CCCl)N=O)CC2` (centres undefined), in the experiment with Human alphaherpesvirus 1 [1], the inhibition at 1 µM amounted to 76%. The EC50 with L1210 worked out at 12 nM; in experiment [2], 27 nM.
Compound `CNC(=O)NC1CCc2cc(OC)c(OC)c(OC)c2-c2ccc(SC)c(=O)cc21` (centres undefined) came in with an inhibition at 175 µM with Human alphaherpesvirus 1 [3] of 85%. The EC50 turned out to be 33 nM in the experiment with L1210 and 29 nM in experiment [2].
Take `COc1cc2c(c(OC)c1OC)-c1ccc(SC)c(=O)cc1C(NC(=O)N(C)N=O)CC2` (centres undefined): testing at 10 µM in the experiment with Human alphaherpesvirus 1 [4] gave an inhibition of 86%. Besides, the EC50 with L1210 is 18 nM; in experiment [2], 26 nM.
`COc1cc2c(c(OC)c1OC)-c1ccc(SC)c(=O)cc1C(NC(=O)NCCCl)CC2` (centres undefined): the EC50 in the experiment with L1210 was found to be 16 nM; in experiment [2], 30 nM. The inhibition at 20 µM in the experiment on Human alphaherpesvirus 1 [5] came out at 72%.
For the compound `O=NN(CCCl)C(=O)NCCCl` [CARMUSTINE], the EC50 in the experiment with L1210 turned out to be 4000 nM.
In the experiment on Human alphaherpesvirus 1 [6], `O=c1[nH]c(=O)n([C@H]2C[C@H](O)[C@@H](CO)O2)cc1I` [IDOXURIDINE] gave an inhibition at 50 µM of 99.3%.
